Source: patent US8236761B2, “C-Met receptor regulation by angiotensin IV (AT4) receptor ligands” (Washington State University Research Foundation, priority 2006, dated 2012)
Non-standard residues stand in square brackets, D forms with d. No end group written: not given here. Nle = CCCC[C@H](N)C(=O)O

Tests used:
MDCK cells = assay: c-Met/HGF stimulated MDCK cell proliferation (MTT); assay type: cell-based, canine; conditions: HGF 10 ng/ml, COMPOUND 2 10^−6M to 10^−14M, four days
Protocol: Thereafter, 10 ng/ml of HGF alone and with the indicated concentrations of Norleual in a 1% FBS DMEM were added to the cells. The cells were cultured under these conditions for four days. On the fourth day, the treatment media was aspirated and replaced with 5 mg/ml of MTT reagent in 0.1 M glycine buffer (Invitrogen). The MTT reagent was incubated with the cells for four hours at 37° C. before adding DMSO to solubilize the cells and record the MTT absorbance on a plate reader. The controls were treated as background and subtracted from all of the treatments to determine the increase in proliferation due solely to HGF treatment. Differences between the treatments were determined using one-way ANOVA with Bonferroni's post-hoc analysis (Prism statistical analysis software). * indicate p<0.05 vs. HGF treatment. N=6, mean+/−SEM. […] Madin-Darby Canine Kidney (MDCK) cells were plated in the wells of a 96 well plate in 100 μl of complete Dulbecco's Modified Eagle's Medium (DMEM). The cells were serum starved for 24 hours to induce quiescence. […] Absorbance of the cleaved substrate was quantitated on a Biotek Synergy HT 2 plate reader according to the manufacturer's instructions. […] The data was analyzed with Prism® (GraphPad, San Diego, Calif.) statistical analysis software. * indicates p<0.01 vs. HGF treatment by Tukey's post-hoc analysis. […]

[1] = system: aortic ring angiogenic sprouts; assay: Ex vivo mouse aortic ring angiogenesis assay; conditions: 100 pM Norleual, four days, EGM-2
Protocol: FIG. 16 depicts inhibition of angiogenesis by Norleual (Compound 2, SEQ ID NO:43) in the mouse aortic ring assay. Rings were incubated in EGM-2 media (Cambrex) with (n=8) or without (n=6) 100 pM Norleual for four days. Digital photos of the rings were taken on day four. FIG. 16A: Quantification of aortic ring angiogenesis. Areas covered by angiogenic sprouts were quantified from day four ring photos, control (−) and Norelual treated (+) (p-value=0.012* and error bars indicate ±SEM). FIG. 16B: HUVECs were treated for 5 minutes with HGF and/or Norleual at indicated concentrations. Lysates were IP with anti-c-Met and IB with anti-c-Met or Gab1.
Aortic ring assay. 48-well plates were coated with Growth Factor Reduced Matrigel (BD Biosciences, San Jose, Calif., USA, thick gel method). Under microscopic dissection, the thoracic aorta of a 6 week-old C57 mouse was cut into 0.5 mm sections, washed in PBS, and placed in the Matrigel-coated wells. […] Photos were taken and angiogenic area was measured using Image J (Image Processing and Data Analysis in Java, available from NIH, Bethesda, Md.). […]
See Example 1 for Materials and Methods. Angiogenesis was evaluated with the ex vivo mouse aortic ring assay in the presence and absence of Norleual. […]

[2] = system: +SA WAZ-2T mouse mammary carcinoma cells; assay: Orthotopic +SA WAZ-2T mammary carcinoma model; assay type: in vivo, Balb/c mice
Protocol: This Example describes Norleaul effects in a mouse model of breast cancer in which animals were orthotopically injected with +SA WAZ-2T mouse mammary carcinoma cells (5×10^5) into the mammary fat pad of 11-week old female Balb/c mice. The +SA cell line was chosen due to its aggressive nature and ability to form highly vascularized tumors with 100% incidence per injection (Danielson et al., 1986). NORLEUAL (SEQ ID NO:43) was delivered via Elvax slow release pellets at doses of 0.3 mg/pellet, 0.03 mg/pellet, and 0.003 mg/pellet, implanted into the mammary glands immediately prior to tumor cell injection. These pellets provided an estimated continuous release of NORLEUAL at doses equivalent to 37.5 μg/kg/day, 3.75 μg/kg/day, and 0.375 μg/kg/day, respectively (based on in vitro release assays of pellets, data not shown). […] Tumor growth was monitored every 2-3 days, based on caliper measurements of the two longest diameters and calculating tumor volume.

Substance: Nle-Tyr-Leu-ψ-His-Pro-Phe ([Nle]YLHPF; also: reduced peptide bond psi(CH2NH2) between Leu and His) [Norleual]
- HGF stimulated MDCK cellular proliferation (MDCK cells): attenuation
- HGF stimulated MDCK cellular proliferation (MDCK cells; listed as Compound 2): inhibited
- Angiogenic growth of aortic rings [1]: significantly attenuated
- Tumor volume ([2]; 0.003 mg/pellet, n=6): 112.7±61 mm^3
- Tumor mean vessel count/high power field (Factor VIII staining) ([2]; 0.3 mg/pellet, n=5, control 27.8±3): 3.0±0.9
- Delay in onset of palpable tumor mass ([2]; 0.3 mg/pellet, n=6, control 7 day lag): up to 21 days
- Inhibition of tumor volume compared to control ([2]; most effective dose, 0.3 mg/pellet): 97%
- Visible vascularization of tumors removed at conclusion ([2]; treated tumors): total lack of visible vascularization
